Results published in US10233173B2, “Substituted 1,2,3-triazoles as NR2B-selective NMDA modulators” (JANSSEN PHARMACEUTICA NV, priority 2016, dated 2019).

Target: human GluN1/GluN2B NMDA receptors (Homo sapiens, UniProt Q05586+Q13224)
Assay: Cell-based calcium flux (FLIPR) assay on cloned human NR1/NR2B ion channels expressed in mammalian cells
Conditions: standard assay; glutamate at ~EC80; FLIPR calcium flux
How it was run: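 Calcium influx followed by FLIPR fluorescence after 5 min compound exposure and a further 5 min co-agonist challenge: 10 μM glycine with glutamate at ~EC80 (standard) or EC40 (HTS).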

Sequence of human GluN1/GluN2B NMDA receptors (Q13224 27-1484, other chains not shown): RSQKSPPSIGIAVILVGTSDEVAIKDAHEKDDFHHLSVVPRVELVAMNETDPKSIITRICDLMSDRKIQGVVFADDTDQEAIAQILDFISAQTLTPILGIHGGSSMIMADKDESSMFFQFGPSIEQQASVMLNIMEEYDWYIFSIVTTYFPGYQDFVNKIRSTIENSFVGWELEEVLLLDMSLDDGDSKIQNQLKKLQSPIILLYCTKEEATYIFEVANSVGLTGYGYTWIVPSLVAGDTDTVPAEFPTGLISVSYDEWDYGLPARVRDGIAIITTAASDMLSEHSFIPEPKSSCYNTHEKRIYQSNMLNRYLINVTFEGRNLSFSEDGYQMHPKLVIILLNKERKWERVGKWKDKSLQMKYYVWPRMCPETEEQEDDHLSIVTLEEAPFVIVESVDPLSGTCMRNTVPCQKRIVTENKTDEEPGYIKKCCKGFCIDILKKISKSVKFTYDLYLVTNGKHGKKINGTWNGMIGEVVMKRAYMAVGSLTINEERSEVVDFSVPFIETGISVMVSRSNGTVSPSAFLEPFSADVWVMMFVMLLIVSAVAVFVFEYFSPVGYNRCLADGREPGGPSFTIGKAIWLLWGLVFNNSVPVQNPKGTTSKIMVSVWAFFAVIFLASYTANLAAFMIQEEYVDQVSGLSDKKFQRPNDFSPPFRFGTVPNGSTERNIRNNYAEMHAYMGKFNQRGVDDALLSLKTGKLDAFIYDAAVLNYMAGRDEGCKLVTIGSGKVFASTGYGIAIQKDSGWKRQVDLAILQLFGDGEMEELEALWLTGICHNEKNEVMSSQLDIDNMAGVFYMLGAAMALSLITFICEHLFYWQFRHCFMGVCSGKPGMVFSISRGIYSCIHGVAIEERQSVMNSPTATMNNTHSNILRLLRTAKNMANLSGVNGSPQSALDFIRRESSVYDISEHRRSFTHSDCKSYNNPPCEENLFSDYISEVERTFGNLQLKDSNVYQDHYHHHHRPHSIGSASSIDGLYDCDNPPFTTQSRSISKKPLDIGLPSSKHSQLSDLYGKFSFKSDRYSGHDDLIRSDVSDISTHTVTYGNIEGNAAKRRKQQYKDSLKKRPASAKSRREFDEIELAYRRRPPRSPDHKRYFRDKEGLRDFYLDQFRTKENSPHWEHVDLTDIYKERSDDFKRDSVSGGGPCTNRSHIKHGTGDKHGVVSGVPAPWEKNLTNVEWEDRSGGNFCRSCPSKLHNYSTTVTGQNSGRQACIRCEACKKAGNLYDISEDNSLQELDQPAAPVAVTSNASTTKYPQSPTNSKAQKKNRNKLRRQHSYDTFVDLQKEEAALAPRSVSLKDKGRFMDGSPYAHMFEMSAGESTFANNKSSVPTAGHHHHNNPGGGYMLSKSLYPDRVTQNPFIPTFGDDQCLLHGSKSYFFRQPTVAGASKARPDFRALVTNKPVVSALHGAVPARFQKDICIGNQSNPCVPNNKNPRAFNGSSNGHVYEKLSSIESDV

Point of comparison: Cc1cnc(OCc2cn(-c3ccc(F)cc3C)nn2)nc1 [Example 490, 2-[[1-(4-Fluoro-2-methyl-phenyl)triazol-4-yl]methoxy]-5-methyl-pyrimidine], IC50 2.44 µM. Against it:
- Fc1ccc(-n2cc(COc3nccc(N4CC[C@@H](F)C4)n3)nn2)cc1OC(F)F [Example 512, (R)-2-[[1-[3-(Difluoromethoxy)-4-fluoro-phenyl]triazol-4-yl]methoxy]-4-[(3R)-3-fluoropyrrolidin-1-yl]pyrimidine] — 7.9-fold lower, 0.308 µM
- CNc1nc(OCc2cn(-c3ccc(Cl)c(C(C)(F)F)c3)nn2)ncc1F [Example 549, 2-[[1-[4-Chloro-3-(1,1-difluoroethyl)phenyl]triazol-4-yl]methoxy]-5-fluoro-N-methyl-pyrimidin-4-amine] — 26-fold lower, 0.094 µM
- CC(F)(F)c1cc(-n2cc(COc3ncc(N4CCC4)cn3)nn2)ccc1F [Example 588, 5-(Azetidin-1-yl)-2-[[1-[3-(1,1-difluoroethyl)-4-fluoro-phenyl]triazol-4-yl]methoxy]pyrimidine] — 72-fold lower, 0.034 µM
- CCNc1cnc(OCc2cn(-c3ccc(F)c(C(F)(F)F)c3)nn2)nc1C [Example 458, 2-((1-(3-(Trifluoromethyl)-4-fluorophenyl)-1H-1,2,3-triazol-4-yl)methoxy)-N-ethyl-4-methylpyrimidin-5-amine] — 5.6-fold lower, 0.439 µM
- Fc1ccc(-n2cc(COc3nccc(NC4CC4)n3)nn2)cc1C(F)F [Example 690, N-Cyclopropyl-2-((1-(3-(difluoromethyl)-4-fluorophenyl)-1H-1,2,3-triazol-4-yl)methoxy)pyrimidin-4-amine] — 300-fold lower, 0.008 µM
- Fc1ccc(-n2cc(COc3ncc(Br)cn3)nn2)cc1C(F)(F)F [Example 454, 5-Bromo-2-((1-(4-fluoro-3-(trifluoromethyl)phenyl)-1H-1,2,3-triazol-4-yl)methoxy)pyrimidine] — 190-fold lower, 0.013 µM
- CC(C)c1ccnc(OCc2cn(-c3ccc(F)c(OC(F)F)c3)nn2)n1 [Example 496, 2-[[1-[3-(Difluoromethoxy)-4-fluoro-phenyl]triazol-4-yl]methoxy]-4-isopropyl-pyrimidine] — 21-fold lower, 0.114 µM
- CCOCc1ccnc(OCc2cn(-c3ccc(F)c(OC(F)F)c3)nn2)n1 [Example 711, 2-((1-(3-(Difluoromethoxy)-4-fluorophenyl)-1H-1,2,3-triazol-4-yl)methoxy)-4-(ethoxymethyl)pyrimidine] — 57-fold lower, 0.043 µM
- Fc1ccc(-n2cc(COc3ncc(C(F)(F)F)cn3)nn2)c(F)c1C(F)F [Example 652, 2-[[1-[3-(Difluoromethyl)-2,4-difluoro-phenyl]triazol-4-yl]methoxy]-5-(trifluoromethyl)pyrimidine] — 22-fold lower, 0.112 µM
- Fc1ccc(-n2cc(COc3ncc(C(F)F)cn3)nn2)cc1C(F)(F)F [Example 439, 5-(Difluoromethyl)-2-[[1-[4-fluoro-3-(trifluoromethyl)phenyl]triazol-4-yl]methoxy]pyrimidine] — 190-fold lower, 0.013 µM
- Cc1cnc(OCc2cn(-c3cc(F)ccc3F)nn2)nc1 [Example 603, 2-[[1-(2,5-Difluorophenyl)triazol-4-yl]methoxy]-5-methyl-pyrimidine] — 4.3-fold higher, 10.4 µM
- CC(=O)c1cnc(OCc2cn(-c3ccc(Cl)c(C(C)(F)F)c3)nn2)nc1 [Example 550, 1-[2-[[1-[4-Chloro-3-(1,1-difluoroethyl)phenyl]triazol-4-yl]methoxy]pyrimidin-5-yl]ethanone] — 150-fold lower, 0.016 µM
- Cc1cnc(OCc2nnn(-c3ccc(F)c(C(C)(F)F)c3)c2C)nc1C [Example 595, 2-[[1-[3-(1,1-Difluoroethyl)-4-fluoro-phenyl]-5-methyl-triazol-4-yl]methoxy]-4,5-dimethyl-pyrimidine] — 3.5-fold lower, 0.706 µM
- CC(C)(O)c1cnc(OCc2cn(-c3cccc(F)c3F)nn2)nc1 [Example 608, 2-[2-[[1-(2,3-Difluorophenyl)triazol-4-yl]methoxy]pyrimidin-5-yl]propan-2-ol] — higher, > 10 µM
- CC(F)(F)c1cc(-n2cc(COc3ncc(CO)cn3)nn2)ccc1F [Example 571, [2-[[1-[3-(1,1-difluoroethyl)-4-fluoro-phenyl]triazol-4-yl]methoxy]pyrimidin-5-yl]methanol] — 120-fold lower, 0.021 µM

Same assay, conditions: standard assay; human GluN1/GluN2B, calcium flux (FLIPR), glutamate ~EC80

Point of comparison: Fc1cnc(OCc2cn(-c3ccc(F)c(Br)c3)nn2)nc1 [Example 19, 2-[[1-(3-Bromo-4-fluoro-phenyl)triazol-4-yl]methoxy]-5-fluoropyrimidine], IC50 0.056 µM. Against it:
- FC(F)c1cccc(-n2cc(COc3nccc(C(F)F)n3)nn2)c1 [Example 274, 4-(Difluoromethyl)-2-[[1-[3-(difluoromethyl)phenyl]triazol-4-yl]methoxy]pyrimidine] — 15-fold higher, 0.813 µM
- FC(F)(F)Oc1ccc(-n2cc(COc3ncc(Cl)cn3)nn2)cc1 [Example 338, 5-Chloro-2-[[1-[4-(trifluoromethoxy)phenyl]triazol-4-yl]methoxy]pyrimidine] — 160-fold higher, 9.05 µM
- COc1cc(-n2cc(COc3ncccn3)nn2)ccc1F [Example 20, 2-[[1-(4-Fluoro-3-methoxy-phenyl)triazol-4-yl]methoxy]pyrimidine] — 18-fold higher, 1 µM
- COc1cnc(OCc2cn(-c3cccc(OC(F)(F)F)c3)nn2)nc1 [Example 349, 5-Methoxy-2-[[1-[3-(trifluoromethoxy)phenyl]triazol-4-yl]methoxy]pyrimidine] — 4.3-fold lower, 0.013 µM
- COCc1ccnc(OCc2cn(-c3cccc(OC(F)(F)F)c3)nn2)n1 [Example 346, 4-(Methoxymethyl)-2-[[1-[3-(trifluoromethoxy)phenyl]triazol-4-yl]methoxy]pyrimidine] — 3.6-fold higher, 0.202 µM
- Cc1cc(C)cc(-n2cc(COc3ncc(Cl)cn3)nn2)c1 [Example 363, 5-Chloro-2-[[1-(3,5-dimethylphenyl)triazol-4-yl]methoxy]pyrimidine] — 2.1-fold higher, 0.118 µM
- FCCCc1cnc(OCc2cn(-c3ccc(Cl)c(OC(F)F)c3)nn2)nc1 [Example 196, 2-[[1-[4-Chloro-3-(difluoromethoxy)phenyl]triazol-4-yl]methoxy]-5-(3-fluoropropyl)pyrimidine] — 2.3-fold lower, 0.024 µM
- FC(F)Oc1cc(-n2cc(COc3ncc(C(F)F)cn3)nn2)ccc1Cl [Example 96, 2-[[1-[4-Chloro-3-(difluoromethoxy)phenyl]triazol-4-yl]methoxy]-5-(difluoromethyl)pyrimidine] — 7-fold lower, 0.008 µM
- Cc1cnc(Cl)nc1OCc1cn(-c2cccc(C(F)F)c2)nn1 [Example 280, 2-Chloro-4-[[1-[3-(difluoromethyl)phenyl]triazol-4-yl]methoxy]-5-methyl-pyrimidine] — 3.1-fold higher, 0.173 µM
- FC(F)(F)c1cnc(OCc2cn(-c3ccc(Cl)cc3)nn2)nc1 [Example 226, 2-[[1-(4-Chlorophenyl)triazol-4-yl]methoxy]-5-(trifluoromethyl)pyrimidine] — 2.8-fold higher, 0.155 µM
- Cc1ccccc1-n1cc(COc2ncc(F)cn2)nn1 [Example 237, 5-Fluoro-2-[[1-(o-tolyl)triazol-4-yl]methoxy]pyrimidine] — 300-fold higher, 16.6 µM
- Fc1ccc(-n2cc(COc3ccccn3)nn2)cc1C(F)(F)F [Example 158, 2-[[1-[4-Fluoro-3-(trifluoromethyl)phenyl]triazol-4-yl]methoxy]pyridine] — 54-fold higher, 3.04 µM
- Nc1nc(OCc2cn(-c3ccc(Cl)c(OC(F)F)c3)nn2)ncc1F [Example 390, 2-((1-(4-Chloro-3-(difluoromethoxy)phenyl)-1H-1,2,3-triazol-4-yl)methoxy)-5-fluoropyrimidin-4-amine] — 9.3-fold lower, 0.006 µM
- Cc1nc(NCc2cn(-c3ccc(F)c(C(F)F)c3)nn2)ncc1Cl [Example 218, 5-Chloro-N-((1-(3-(difluoromethyl)-4-fluorophenyl)-1H-1,2,3-triazol-4-yl)methyl)-4-methylpyrimidin-2-amine] — 5.1-fold lower, 0.011 µM
- COCc1ccnc(OCc2cn(-c3cccc(C(F)F)c3)nn2)n1 [Example 271] — 6.4-fold higher, 0.36 µM
- Cc1cccc(OCc2cn(-c3ccc(F)c(OC(F)F)c3)nn2)n1 [Example 8, 2-[[1-[3-(Difluoromethoxy)-4-fluoro-phenyl]triazol-4-yl]methoxy]-6-methyl-pyridine] — 2.5-fold lower, 0.022 µM
- CCc1cnc(OCc2cn(-c3ccc(C)cc3)nn2)nc1 [Example 261, 5-Ethyl-2-[[1-(p-tolyl)triazol-4-yl]methoxy]pyrimidine] — 1.7-fold higher, 0.093 µM
- CC(F)(F)c1cccc(-n2cc(COc3ncc(OC(F)F)cn3)nn2)c1 [Example 308, 2-[[1-[3-(1,1-Difluoroethyl)phenyl]triazol-4-yl]methoxy]-5-(difluoromethoxy)pyrimidine] — 19-fold lower, 0.003 µM
- Cc1cnc(OCc2cn(-c3cccc(OC(F)F)c3)nn2)nc1 [Example 327, 2-[[1-[3-(Difluoromethoxy)phenyl]triazol-4-yl]methoxy]-5-methyl-pyrimidine] — 3.7-fold lower, 0.015 µM
- COc1cnc(O[C@H](C)c2cn(-c3ccc(Cl)c(OC(F)F)c3)nn2)nc1 [Example 377, 2-[(1R)-1-[1-[4-Chloro-3-(difluoromethoxy)phenyl]triazol-4-yl]ethoxy]-5-methoxy-pyrimidine] — 5.6-fold lower, 0.01 µM
- Cn1ccnc1NCc1cn(-c2ccc(F)c(OC(F)F)c2)nn1 [Example 7, N-[[1-[3-(Difluoromethoxy)-4-fluoro-phenyl]triazol-4-yl]methyl]-1-methyl-imidazol-2-amine] — 33-fold higher, 1.87 µM
- CC(F)(F)c1cccc(-n2cc(COc3ncc(CO)cn3)nn2)c1 [Example 298, [2-[[1-[3-(1,1-Difluoroethyl)phenyl]triazol-4-yl]methoxy]pyrimidin-5-yl]methanol] — 1.6-fold lower, 0.034 µM
- Cc1cnc(OCc2cn(-c3cccc(C(F)(F)F)c3)nn2)nc1C [Example 290, 4,5-Dimethyl-2-[[1-[3-(trifluoromethyl)phenyl]triazol-4-yl]methoxy]pyrimidine] — 8-fold lower, 0.007 µM
- CCc1cnc(NCc2cn(-c3ccc(F)c(C(F)F)c3)nn2)nc1 [Example 216, N-((1-(3-(Difluoromethyl)-4-fluorophenyl)-1H-1,2,3-triazol-4-yl)methyl)-5-ethylpyrimidin-2-amine] — 2.2-fold lower, 0.026 µM
- FC(F)(F)Oc1ccc(-n2cc(COc3ncccn3)nn2)cc1 [Example 335, 2-[[1-[4-(Trifluoromethoxy)phenyl]triazol-4-yl]methoxy]pyrimidine] — 56-fold higher, 3.12 µM
